# Laboratory results published in US20260250290A1 (BRISTOL-MYERS SQUIBB COMPANY, priority 2023, published 2026).
# Where a name gives a salt, the structure may show the parent alone.
# Biological target: T1, full length SGK1 (Homo sapiens, UniProt O00141)
# T1 construct: 125 μM full length SGK1 (Life Technologies Part #PR7358A); purchased Life Technologies PR7358A
# T1 sequence (O00141 1-431): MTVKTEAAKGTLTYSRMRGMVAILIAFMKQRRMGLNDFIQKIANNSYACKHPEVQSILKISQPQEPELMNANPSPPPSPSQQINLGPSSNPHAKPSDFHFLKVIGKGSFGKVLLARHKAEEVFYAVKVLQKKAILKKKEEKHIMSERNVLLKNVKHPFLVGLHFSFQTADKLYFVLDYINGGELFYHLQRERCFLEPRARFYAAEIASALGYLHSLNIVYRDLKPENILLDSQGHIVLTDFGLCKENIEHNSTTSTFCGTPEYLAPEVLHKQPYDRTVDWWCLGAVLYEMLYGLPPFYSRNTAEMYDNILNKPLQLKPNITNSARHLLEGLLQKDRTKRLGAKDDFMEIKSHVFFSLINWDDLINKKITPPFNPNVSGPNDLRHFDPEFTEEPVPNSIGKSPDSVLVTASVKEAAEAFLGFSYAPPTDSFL
# Experiment: SGK1 inhibition Assay A (Caliper LabChip electrophoretic separation of fluorescent peptide substrate and phosphorylated product)
# Assay type: biochemical
# Details: Assay A; 20 μM ATP, 40 min incubation; read-out: SGK1 IC50
row,IC50,SMILES
1,30 nM,"Cc1ccc(C(=O)N[C@@H]2CCCN(c3c(C#N)c(-c4ccc(S(C)(=O)=O)cc4)n4ncnc(N)c34)C2)s1 [Example 197, N-[(3R)-1-[4-amino-6-cyano-7-(4-methanesulfonylphenyl)pyrrolo[2,1-f][1,2,4]triazin-5-yl]piperidin-3-yl]-5-methylthiophene-2-carboxamide]"
2,13 nM,"CS(=O)(=O)c1ccc(-c2cc(N3CCC[C@@H](NC(=O)c4cccc(Cl)c4)C3)c3c(N)ncnn23)cc1 [Example 21, (R)-N-(1-(4-amino-7-(4-(methylsulfonyl)phenyl)pyrrolo[2,1-f][1,2,4]triazin-5-yl)piperidin-3-yl)-3-chlorobenzamide]"
3,263 nM,"CS(=O)(=O)c1ccc(-c2cc(N3CCCC(NC(=O)Nc4ccccc4)C3)c3c(N)ncnn23)cc1 (stereo not shown) [Example 9, 1-(1-(4-amino-7-(4-(methylsulfonyl)phenyl)pyrrolo[2,1-f][1,2,4]triazin-5-yl)piperidin-3-yl)-3-phenylurea, TFA]"
4,4 nM,"Nc1ncnn2c(-c3ccnc(C(F)F)c3)cc(N3CCC[C@@H](NC(=O)c4cccs4)C3)c12 [Example 484, (R)-N-(1-(4-amino-7-(2-(difluoromethyl)pyridin-4-yl)pyrrolo[2,1-f][1,2,4]triazin-5-yl)piperidin-3-yl)thiophene-2-carboxamide]"
5,8 nM,"COC(=O)N1CC=C(c2cc(N3CCC[C@@H](NC(=O)c4sc(C(F)F)cc4OCC4CCNCC4)C3)c3c(N)ncnn23)C1 [Example 351, methyl (R)-3-(4-amino-5-(3-(5-(difluoromethyl)-3-(piperidin-4-yl-methoxy)thiophene-2-carboxamido)piperidin-1-yl)pyrrolo[2,1-f][1,2,4]triazin-7-yl)-2,5-dihydro-1H-pyrrole-1-carboxylate]"
6,4 nM,"COc1cc(-c2cc(N3CCC[C@@H](NC(=O)c4ccc(Cl)s4)C3)c3c(N)ncnn23)ccc1C(N)=O [Example 207, (R)-N-(1-(4-amino-7-(4-carbamoyl-3-methoxyphenyl)pyrrolo [2,1-f][1,2,4]triazin-5-yl)piperidin-3-yl)-5-chlorothiophene-2-carboxamide]"
7,0.4 nM,"NC(=O)c1ccc(-c2cc(N3CCC[C@@H](NC(=O)c4sc(C5CC5)cc4OC4CNC4)C3)c3c(N)ncnn23)cc1F [Example 389, (R)—N-(1-(4-amino-7-(4-carbamoyl-3-fluorophenyl)pyrrolo[2,1-f][1,2,4]triazin-5-yl)piperidin-3-yl)-3-(azetidin-3-yloxy)-5-cyclopropylthiophene-2-carboxamide]"
8,10 nM,"COc1cscc1C(=O)N[C@@H]1CCCN(c2cc(C3=CCN(C(C)=O)C3)n3ncnc(N)c23)C1 [Example 721, (R)-N-(1-(7-(1-acetyl-2,5-dihydro-1H-pyrrol-3-yl)-4-aminopyrrolo[2,1-f][1,2,4]triazin-5-yl)piperidin-3-yl)-4-methoxythiophene-3-carboxamide]"
9,113 nM,"CC(=O)N1CCC(Oc2cc(C(F)F)sc2C(=O)N[C@@H]2CCCN(c3cc(-c4cncnc4)n4ncnc(N)c34)C2)CC1 [Example 413, (R)-3-((1-acetylpiperidin-4-yl)oxy)-N-(1-(4-amino-7-(pyrimidin-5-yl)pyrrolo[2,1-f][1,2,4]triazin-5-yl)piperidin-3-yl)-5-(difluoromethyl)thiophene-2-carboxamide]"
10,108 nM,"COC(=O)N1CC=C(c2cc(N3CCC[C@@H](NC(=O)c4sc(Cl)cc4OCC(=O)N4CCCC4)C3)c3c(N)ncnn23)C1 [Example 418, Methyl (R)-3-(4-amino-5-(3-(5-chloro-3-(2-oxo-2-(pyrrolidin-1-yl)ethoxy)thiophene-2-carboxamido)piperidin-1-yl)pyrrolo[2,1-f][1,2,4]triazin-7-yl)-2,5-dihydro-1H-pyrrole-1-carboxylate]"
11,18 nM,"N#Cc1ncc(-c2cc(N3CCC[C@@H](NC(=O)c4ccc(Cl)s4)C3)c3c(N)ncnn23)cc1C(F)(F)F [Example 531, (R)-N-(1-(4-amino-7-(6-cyano-5-(trifluoromethyl)pyridin-3-yl)pyrrolo[2,1-f][1,2,4]triazin-5-yl)piperidin-3-yl)-5-chlorothiophene-2-carboxamide]"
12,3 nM,"N#Cc1ccc(-c2cc(N3CCC[C@@H](NC(=O)c4sc5ccccc5c4OC4CCNCC4)C3)c3c(N)ncnn23)cn1 [Example 656, (R)—N-(1-(4-amino-7-(6-cyanopyridin-3-yl)pyrrolo[2,1-f][1,2,4]triazin-5-yl)piperidin-3-yl)-3-(piperidin-4-yloxy)benzo[b]thiophene-2-carboxamide]"
13,8 nM,"CC(=O)N1CC=C(c2cc(N3CCC[C@@H](NC(=O)c4sc(Cl)cc4OCC4CCNCC4)C3)c3c(N)ncnn23)C1 [Example 640, (R)-N-(1-(7-(1-acetyl-2,5-dihydro-1H-pyrrol-3-yl)-4-aminopyrrolo[2,1-f][1,2,4]triazin-5-y1)piperidin-3-y1)-5-chloro-3-(piperidin-4-ylmethoxy)thiophene~2-carboxamide]"
14,6 nM,"CC(=O)N1CC=C(c2cc(N3CCC[C@@H](NC(=O)c4cc(-c5ccccc5)n[nH]4)C3)c3c(N)ncnn23)C1 [Example 493, (R)-N-(1-(7-(1-acetyl-2,5-dihydro-1H-pyrrol-3-yl)-4-aminopyrrolo[2,1-f][1,2,4]triazin-5-yl)piperidin-3-yl)-3-phenyl-1H-pyrazole-5-carboxamide]"
15,3 nM,"CC(=O)N1CC=C(c2cc(N3CCC[C@@H](NC(=O)c4sc(Cl)cc4OCCNC(=O)C(F)F)C3)c3c(N)ncnn23)C1 [Example 329, (R)—N-(1-(7-(1-acetyl-2,5-dihydro-1H-pyrrol-3-yl)-4-aminopyrrolo[2,1-f][1,2,4]triazin-5-yl)piperidin-3-yl)-5-chloro-3-(2-(2,2-difluoroacetamido)ethoxy)thiophene-2-carboxamide]"
16,9 nM,"CS(=O)(=O)c1ccc(-c2cc(N3CCC[C@@H](NC(=O)c4ccnc(Br)c4)C3)c3c(N)ncnn23)cc1 [Example 86, (R)-N-(1-(4-amino-7-(4-(methylsulfonyl)phenyl)pyrrolo[2,1-f][1,2,4]triazin-5-yl)piperidin-3-yl)-2-bromoisonicotinamide, TFA]"
17,45 nM,"COc1nc(C)c(C(=O)N[C@@H]2CCCN(c3cc(C4=CCN(C(C)=O)C4)n4ncnc(N)c34)C2)s1 [Example 474, (R)-N-(1-(7-(1-acetyl-2,5-dihydro-1H-pyrrol-3-yl)-4-aminopyrrolo[2,1-f][1,2,4]triazin-5-yl)piperidin-3-yl)-2-methoxy-4-methylthiazole-5-carboxamide]"
18,26 nM,"CC(=O)c1ccc(-c2cc(N3CCC[C@@H](NC(=O)c4cccc(N5CCN(C)CC5)n4)C3)c3c(N)ncnn23)cc1 [Example 801, (R)-N-(1-(7-(4-acetylphenyl)-4-aminopyrrolo[2,1-f][1,2,4]triazin-5-yl)piperidin-3-yl)-6-(4-methylpiperazin-1-yl)picolinamide]"
19,19 nM,"Nc1ncnn2c(-c3ccnc(C(F)F)c3)cc(N3CCC[C@@H](NC(=O)c4sc(C(F)F)cc4N4CC5(COC5)C4)C3)c12 [Example 345, (R)—N-(1-(4-amino-7-(2-(difluoromethyl)pyridin-4-yl)pyrrolo[2,1-f][1,2,4]triazin-5-yl)piperidin-3-yl)-5-(difluoromethyl)-3-(2-oxa-6-azaspiro[3.3]heptan-6-yl)thiophene-2-carboxamide]"
20,22 nM,"COc1cccc(C(=O)N[C@@H]2CCCN(c3cc(C4=CCN(C(C)=O)C4)n4ncnc(N)c34)C2)n1 [Example 715, (R)-N-(1-(7-(1-acetyl-2,5-dihydro-1H-pyrrol-3-yl)-4-aminopyrrolo[2,1-f][1,2,4]triazin-5-yl)piperidin-3-yl)-6-methoxypicolinamide]"
21,6 nM,"NCCC(=O)N1CC=C(c2cc(N3CCC[C@@H](NC(=O)c4ccc(Cl)s4)C3)c3c(N)ncnn23)C1 [Example 883, (R)-N-(1-(4-amino-7-(1-(3-aminopropanoy1)-2,5-dihydro-1H-pyrrol-3-yl)pyrrolo[2,1-f][1,2,4]triazin-5-y1)piperidin-3-y1)-5-chlorothiophene-2-carboxamide]"
22,103 nM,"Cc1cc(-c2cc(N3CCC[C@@H](NC(=O)c4sc(Cl)cc4OCCN(C)C)C3)c3c(N)ncnn23)cn(CC(C)C)c1=O [Example 694, (R)—N-(1-(4-amino-7-(1-isobutyl-5-methyl-6-oxo-1,6-dihydropyridin-3-yl)pyrrolo[2,1-f][1,2,4]triazin-5-yl)piperidin-3-yl)-5-chloro-3-(2-(dimethylamino)ethoxy)thiophene-2-carboxamide]"
23,10 nM,CC(=O)N1CC=C(c2cc(N3CCC[C@@H](NC(=O)c4sc(Cl)cc4OC4CCCN(C)C4)C3)c3c(N)ncnn23)C1 (stereo partly shown) [Example 597]
24,68 nM,"Nc1ncnn2c(-c3ccc4c(c3)C(=O)NC4)cc(N3CCC[C@@H](NC(=O)c4ccc(Cl)s4)C3)c12 [Example 219, (R)-N-(1-(4-amino-7-(3-oxoisoindolin-5-yl)pyrrolo[2,1-f][1,2,4]triazin-5-yl)piperidin-3-yl)-5-chlorothiophene-2-carboxamide]"
25,17 nM,"CC(=O)N1CC=C(c2cc(N3CCC[C@@H](NC(=O)c4cccc(N5CC(C)(O)C5)n4)C3)c3c(N)ncnn23)C1 [Example 771, (R)-N-(1-(7-(1-acetyl-2,5-dihydro-1H-pyrrol-3-yl)-4-aminopyrrolo[2,1-f][1,2,4]triazin-5-yl)piperidin-3-yl)-6-(3-hydroxy-3-methylazetidin-1-yl)picolinamide]"
